Data: patent publication US7922998B2, “Gastrin releasing peptide compounds” (Bracco Imaging S.p.A., priority 2003, dated 2011)
Entries after “also recorded” stand apart in the source; their conditions may differ.

Tests used:
GRP-R = molecular target: T1, GRP-R (Homo sapiens, UniProt P30550); assay: Competition assay of modified BBN analogs with 125I-BBN for GRP-R in PC3 cells (Example LXI); assay type: binding; details: in words
T1 construct: host or cells: PC3 human prostate cancer cells, intact and plated
Method: • PC3 cell lines were obtained from ATCC(CRL-1435) and cultured in RPMI 1640 (ATCC) supplemented with 2 mM L-glutamine, 1.5 g/L Sodium bicarbonate, 10 mM HEPES and 10% FBS. […] PC3 cells for the assays were plated at a concentration of 2.0×10^4 cells/well in a 96-well white/clear bottom plates (Falcon Optilux-I). Plates were used for the assays on day 2 of the post-plating.
• RPMI 1640 (ATCC) containing 25 mM HEPES, 0.2% BSA fraction V, 1.0 mM AEBSF (CAS #3087-99-7) and 0.1% Bacitracin (CAS #1405-87-4), pH 7.4.
• ^125I-BBN (Cat # NEX258) was obtained from PerkinElmer Life Sciences.
• All compounds tested were dissolved in binding buffer and appropriate dilutions were also done in binding buffer. PC3 cells for assay were seeded at a concentration of 2.0×10^4/well either in 96-well black/clear collagen I cellware plates (Beckton Dickinson Biocoat). Plates were used for binding studies on day 2 post-plating. The plates were checked for confluency (>90% confluent) prior to assay. […] The studies were conducted with an assay volume of 75 μl per well. Triplicate wells were used for each data point. After the addition of the appropriate solutions, plates were incubated for 1 hour at 4° C. Incubation was ended by the addition of 200 uL of ice-cold incubation buffer. Plates were washed 5 times and blotted dry. Radioactivity was detected using either a LKB CompuGamma counter or a microplate scintillation counter.

NMB-R = molecular target: T2, NMB-R (Rattus norvegicus, UniProt P24053); assay: Competition with 125I-NMB for NMB-R in C6 cells (Example LX); assay type: binding, rodent; details: for receptor subtype preference (GRP-R / NMB-R): in words, from IC50 with 125I-NMB (C6) and 125I-BBN (PC3), cut off 10× the IC50 of [Tyr4]-BBN
T2 construct: C6, an NMB-R expressing rodent glioblastoma cell line; host or cells: C6 glioma cells, intact and plated
T2 sequence (P24053 1-390): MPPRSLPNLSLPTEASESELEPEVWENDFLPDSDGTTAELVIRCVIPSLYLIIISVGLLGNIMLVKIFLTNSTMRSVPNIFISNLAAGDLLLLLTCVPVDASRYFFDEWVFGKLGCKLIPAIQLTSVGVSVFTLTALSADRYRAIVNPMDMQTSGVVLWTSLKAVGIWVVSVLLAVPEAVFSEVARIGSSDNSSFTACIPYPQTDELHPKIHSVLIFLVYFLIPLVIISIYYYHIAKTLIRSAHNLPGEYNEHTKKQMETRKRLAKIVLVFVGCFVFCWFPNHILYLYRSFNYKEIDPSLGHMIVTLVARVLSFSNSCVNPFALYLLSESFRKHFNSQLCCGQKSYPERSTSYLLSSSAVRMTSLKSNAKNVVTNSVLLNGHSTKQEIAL
Method: Two cell lines, C6, an NMB-R expressing rodent glioblastoma cell line and PC3, a GRP-R expressing human prostate cancer cell line, were used in this assay. The affinity of various unlabeled compounds for each receptor subtype (NMB-R and GRP-R) was determined indirectly by measuring its ability to compete with the binding of ^125I-NMB or ^125I-BBN to its corresponding receptors in C6 and PC3 cells.
Cells for the assays were plated at a concentration of 9.6×10^4/well in 48 well poly-lysine coated plates (Beckton Dickinson Biocoat).
• Custom made ^125I-[Tyr^0]NMB, >2.0 Ci/μmole (Amersham Life Science) [^125I-NMB] and commercially available ^125I-[Tyr^4]BBN, >2.0 Ci/μmole (Perkin Elmer Life Science) [^125I-BBN] were used as radioligands.
• Using a 48-well plate assay system (for C6 study) competition experiments were performed using ^125I-NMB. […] Selection of compounds for the assay was based on linker subtype.
The binding parameters obtained from the studies were analyzed using a one-site competition non-linear regression analysis with GraphPad Prism. The relative affinity of various compounds for NMB-R in C6 cells were compared with those obtained using commercially available [Tyr^4]-BBN and [Tyr^0]-NMB. To distinguish the GRP-R preferring compounds from NMB-R plus GRP-R preferring compounds, IC50 values obtained for each compound was compared with those obtained from [Tyr^0]-BBN with ^125I-NMB on C6 cells.

[1] = tested on: PC3 tumor-bearing nude mouse model; assay: Radiotherapy Long Term Efficacy Study; assay type: in vivo; details: 177Lu labeled, 30 mCi/kg, up to 120 days; vs same controls; FIG. 15B
PC3 cells = assay: Internalization & Efflux Assay in PC3 cells; assay type: cell-based, human; details: for Internalisation (40 minutes): 40 min at 37° C., Lu-177 complexes (125I-BBN as comparator); for Efflux (2 h): percent efflux 2 h after loading 40 min at 37° C., Lu-177 complexes
Method: • These studies were conducted in a 96-well plate. […] Incubations were stopped by the addition of 200 μl of ice-cold binding buffer. Plates were washed twice with binding buffer. To remove surface-bound radioligand, the cells were incubated with 0.2M acetic acid (in saline), pH 2.8 for 2 min. Plates were centrifuged and the acid wash media were collected to determine the amount of radioactivity which was not internalized. The cells were collected to determine the amount of internalized ^125I-BBN, and all samples were analyzed in the gamma counter. Data for the internalization assay was normalized by comparing counts obtained at the various time points with the counts obtained at the final time point (T40 min). • For the efflux studies, after loading the PC3 cells with ^125I-BBN or radiolabeled compounds of the invention for 40 min at 37° C., the unbound material was filtered, and the % of internalization was determined as above. The cells were then resuspended in binding buffer at 37° C. for up to 3 h.

[2] = tested on: PC3 tumor-bearing nude mice; assay type: in vivo, mouse; details: in words; for uptake in the tumor compared with control: 1 and 24 h
Method: • Low dose pharmacokinetic studies (e.g., biodistribution studies) were performed using the below-identified compounds of the invention in xenografted, PC3 tumor-bearing nude mice ([Ncr]-Foxn1). In all studies, mice were administered 100 μL of ^177Lu-labeled test compound at 200 μCi/kg, i.v., with a residence time of 1 and 24 h per group (n=3-4). Tissues were analyzed in an LKB 1282 CompuGamma counter with appropriate standards.

[3] = tested on: PC3 tumor-bearing nude mouse model; assay: Radiotherapy Short Term Efficacy Study; assay type: in vivo
Method: • Radiotherapy studies were performed using the PC3 tumor-bearing nude mouse model. […] (n=12 for each treatment group for up to 30 days, and n=36 for the pooled untreated control group for up to 31 days). […] The subjects were housed in a barrier environment for the duration of the study. Body weight and tumor size (by caliper measurement) were collected on each subject 3 times per week for the duration of the study. Criteria for early termination included: death; loss of total body weight (TBW) equal to or greater than 20%; tumor size equal to or greater than 2 cm^3.

[4] = Table 10, class cut off 10x the IC50 of [Tyr4]-BBN with 125I-NMB on C6 cells, yes or dash
[5] = 177Lu labeled, 30 mCi/kg, up to 30 days, vs untreated and vs DO3A-monoamide-Aoc-QWAVGHLM-NH2 control, FIG. 15A

T1 sequence (P30550 whole entry): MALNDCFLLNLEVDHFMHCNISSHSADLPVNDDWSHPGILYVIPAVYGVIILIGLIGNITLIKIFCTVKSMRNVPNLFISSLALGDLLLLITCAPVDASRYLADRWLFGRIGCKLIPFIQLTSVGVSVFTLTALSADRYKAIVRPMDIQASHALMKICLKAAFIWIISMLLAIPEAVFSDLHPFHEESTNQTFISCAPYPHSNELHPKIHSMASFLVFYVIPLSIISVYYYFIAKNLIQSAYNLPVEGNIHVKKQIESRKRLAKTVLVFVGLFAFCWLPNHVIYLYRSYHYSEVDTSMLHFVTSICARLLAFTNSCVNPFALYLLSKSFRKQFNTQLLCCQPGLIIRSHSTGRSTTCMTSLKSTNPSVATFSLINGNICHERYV

DO3A-Gly-Abz-4-Gln-Trp-Ala-Val-Gly-His-Phe-Leu-NH2 [Compound L300]
competition / activity at GRP-R (GRP-R): high activity at the GRP-R

N-[(3β,5β,12α)-3-[[[4,7,10-Tris(carboxymethyl)-1,4,7,10-tetraazacyclododec-1-yl]acetyl]amino]-glycyl-4-aminobenzoyl-L-glutaminyl-L-tryptophyl-L-alanyl-L-valyl-glycyl-L-histidyl-L-phenylalanyl-L-methioninamide [Compound L228]
competition / activity at GRP-R (GRP-R): maintains GRP-R activity

N-[(3β,5β,12α)-3-[[[[[4,7,10-Tris(carboxymethyl)-1,4,7,10-tetraazacyclododec-1-yl]acetyl]amino]acetyl]amino]-4-hydrazinobenzoyl-L-glutaminyl-L-tryptophyl-L-alanyl-L-valyl-glycyl-L-histidyl-L-leucyl-L-methioninamide [Compound L202]
GRP-R & NMB-R (binds both with similar affinity) (NMB-R; [4]): yes

CSCC[C@H](NC(=O)[C@H](CC(C)C)NC(=O)[C@H](Cc1c[nH]cn1)NC(=O)CNC(=O)[C@@H](NC(=O)[C@H](C)NC(=O)[C@H](Cc1c[nH]c2ccccc12)NC(=O)[C@H](CCC(N)=O)NC(=O)CC[C@@H](C)[C@H]1CC[C@H]2[C@@H]3[C@H](O)C[C@@H]4C[C@@H](NC(=O)CNC(=O)CN5CCN(CC(=O)O)CCN(CC(=O)O)CCN(CC(=O)O)CC5)CC[C@]4(C)[C@H]3C[C@H](O)[C@]12C)C(C)C)C(N)=O [Compound L64, N-[(3β,5β,7α,12α)-3-[[[[[4,7,10-Tris(carboxymethyl)-1,4,7,10-tetraazacyclododec-1-yl]acetyl]amino]acetyl]amino]-7,12-dihydroxy-24-oxocholan-24-yl]-L-glutaminyl-L-tryptophyl-L-alanyl-L-valyl-glycyl-L-histidyl-L-leucyl-L-methioninamide]
survival [1]: significantly increased survival | GRP-R & NMB-R (binds both with similar affinity) (NMB-R; [4]): yes | receptor subtype preference (GRP-R / NMB-R) (NMB-R): dual affinity for both GRP-R and NMB-R | Internalisation (40 minutes) (PC3 cells): 69% | Efflux (2 h) (PC3 cells): 20% | uptake in the mouse pancreas compared with control [2]: much higher | uptake in the tumor compared with control [2]: much higher | survival [3, 5]: increased survival

N-[(3β,5β,12α)-3-[[[[[4,7,10-Tris(carboxymethyl)-1,4,7,10-tetraazacyclododec-1-yl]acetyl]amino]acetyl]amino]-[4′-Amino-2′-methyl biphenyl-4-carboxyl]-L-glutaminyl-L-tryptophyl-L-alanyl-L-valyl-glycyl-L-histidyl-L-leucyl-L-methioninamide [Compound L206]
GRP-R & NMB-R (binds both with similar affinity) (NMB-R; [4]): yes

N-[4-[[[[[4,7,10-Tris(carboxymethyl)-1,4,7,10-tetraazacyclododec-1-yl]acetyl]amino]acetyl]amino]benzoyl]-L-glutaminyl-L-tryptophyl-L-alanyl-L-valyl-glycyl-L-histidyl-L-leucyl-L-methioninamide [Compound L70]
survival [1]: significantly increased survival | GRP-R & NMB-R (binds both with similar affinity) (NMB-R; [4]): yes | receptor subtype preference (GRP-R / NMB-R) (NMB-R): dual affinity | Internalisation (40 minutes) (PC3 cells): 70% | Efflux (2 h) (PC3 cells): 12% | survival ([3]; mouse, in vivo): increased survival

N,N-dimethylglycine-Ser-Cys(Acm)-Gly-N-4-aminoethyl-N-1-piperazineacetic acid-Ser-BBN(7-14) [Compound L28]
GRP-R & NMB-R (binds both with similar affinity) (NMB-R; [4]): yes

N-[(3β,5β,12α)-3-[[[4,7,10-Tris(carboxymethyl)-1,4,7,10-tetraazacyclododec-1-yl]acetyl]amino]-glycyl-4-aminobenzoyl-L-leucyl-L-tryptophyl-L-alanyl-L-valinyl-glycyl-L-serinyl-L-phenylalanyl-L-methioninamide [Compound L225]
competition / activity at GRP-R (GRP-R): reduces competition at the GRP-R

DO3A-monoamide-8-amino-octanoic acid-BBN (7-14) [reference compound]
Internalisation (40 minutes) (PC3 cells): 89% | Efflux (2 h) (PC3 cells): 28%

N,N-dimethylglycine-Ser-Cys(Acm)-Gly-Asp-8-amino-3,6-dioxaoctanoic acid-BBN(7-14) [Compound L3]
GRP-R & NMB-R (binds both with similar affinity) (NMB-R; [4]): yes

DO3A-monoamide-N-4-aminoethyl-N-1-piperazineacetic acid-BBN(7-14) [Compound L89]
GRP-R (preferentially binds GRP-R) (NMB-R; [4]): yes | receptor subtype preference (GRP-R / NMB-R) (NMB-R): GRP-R selectivity

N,N-dimethylglycine-Ser-Cys(Acm)-Gly-N-1-piperazineacetic acid-8-amino-3,6-dioxaoctanoic acid-BBN(7-14) [Compound L36]
GRP-R & NMB-R (binds both with similar affinity) (NMB-R; [4]): yes

N-[4-[[[[4,7,10-Tris(carboxymethyl)-1,4,7,10tetraazacyclododec-1-yl]acetyl]glycyl]amino]3-chlorobenzoyl]L-glutaminyl-L-tryptophyl-1-alanyl-L-valyl-glycyl-L-histidyl-L-leucyl-L-methioninamide [Compound L241]
GRP-R & NMB-R (binds both with similar affinity) (NMB-R; [4]): yes

N-[(3β,5β,12α)-3-[[[4,7,10-Tris(carboxymethyl)-1,4,7,10-tetraazacyclododec-1-yl]acetyl]amino]-4-aminobenzoyl-glycyl-L-glutaminyl-L-tryptophyl-L-alanyl-L-valyl-glycyl-L-histidyl-L-leucyl-L-methioninamide [Compound L204]
Receptor preference in words (cell spanning the GRP-R and GRP-R & NMB-R columns) (NMB-R; Table 10): preference to NMB-R | GRP-R & NMB-R (binds both with similar affinity) (NMB-R; [4]): yes | receptor subtype preference (GRP-R / NMB-R) (NMB-R): selective affinity to NMB-R; also recorded: favor the NMB subtype

N-[[4,7,10-Tris(carboxymethyl)-1,4,7,10-tetraazacyclododec-1-yl]acetyl]glycyl-4-piperidinecarbonyl-L-glutaminyl-L-tryptophyl-L-alanyl-L-valyl-glycyl-L-histidyl-L-leucyl-L-methioninamide [Compound L74]
GRP-R & NMB-R (binds both with similar affinity) (NMB-R; [4]): yes

N-[4-[[[[4,7,10-Tris(carboxymethyl)-1,4,7,10tetraazacyclododec-1-yl]acetyl]glycyl]amino]-3-methoxybenzoyl]-L-glutaminyl-L-tryptophyl-1-alanyl-L-valyl-glycyl-L-histidyl-L-leucyl-L-methioninamide [Compound L240]
receptor subtype preference (GRP-R / NMB-R) (NMB-R): selective affinity to GRP-R

N-[(3β,5β,12α)-3-[[[4,7,10-Tris(carboxymethyl)-1,4,7,10-tetraazacyclododec-1-yl]acetyl]amino]-glycyl-4-aminobenzoyl-L-glutaminyl-L-tryptophyl-L-alanyl-glycyl-L-histidyl-L-phenylalanyl-L-leucinamide [Compound L224]
competition / activity at GRP-R (GRP-R): complete loss of binding

CSCC[C@H](NC(=O)[C@H](CC(C)C)NC(=O)[C@H](Cc1c[nH]cn1)NC(=O)CNC(=O)[C@@H](NC(=O)[C@H](C)NC(=O)[C@H](Cc1c[nH]c2ccccc12)NC(=O)[C@H](CCC(N)=O)NC(=O)CC[C@@H](C)[C@H]1CC[C@H]2[C@@H]3CC[C@@H]4C[C@@H](NC(=O)CNC(=O)CN5CCN(CC(=O)O)CCN(CC(=O)O)CCN(CC(=O)O)CC5)CC[C@]4(C)[C@H]3C[C@H](O)[C@]12C)C(C)C)C(N)=O [Compound L63, N-[(3β,5β,12α)-3-[[[[[4,7,10-Tris(carboxymethyl)-1,4,7,10-tetraazacyclododec-1-yl]acetyl]amino]acetyl]amino]-12-hydroxy-24-oxocholan-24-yl]-L-glutaminyl-L-tryptophyl-L-alanyl-L-valyl-glycyl-L-histidyl-L-leucyl-L-methioninamide]
GRP-R & NMB-R (binds both with similar affinity) (NMB-R; [4]): yes | receptor subtype preference (GRP-R / NMB-R) (NMB-R): dual affinity for both GRP-R and NMB-R | Internalisation (40 minutes) (PC3 cells): 64% | Efflux (2 h) (PC3 cells): 0% | uptake in the mouse pancreas compared with control [2]: much higher | uptake in the tumor compared with control [2]: high tumour uptake | distribution of radioactivity in the blood, liver and kidneys compared with control ([2]; vs DO3A-monoamide-Aoc-QWAVGHLM-NH2): increased blood and liver values at early times | survival [3, 5]: increased survival
